Reference: patent publication US11000501B2, “Composition for preventing or treating neurological and mental disorders, containing syringaresinol” (SEOUL NATIONAL UNIVERSITY R&DB FOUNDATION, priority 2016, dated 2021)

Test system: Schaffer collateral (SC)-CA1 synapse of the hippocampus
Experiment: fEPSP recording in hippocampal SC-CA1 synapse (hippocampal slices)
Type: cell-based, mouse
Conditions: 10 μM, applied after SYR
Procedure: A hippocampus slice (400 μm thick) was prepared in a cold dissection buffer using a vibrating machine (Vibratome, Leica, Germany) and then a CA3 region of each slice was removed surgically immediately after the slice formation. In this connection, the cold dissection buffer contained sucrose 230 mM; NaHCO3 25 mM; KCl 2.5 mM; NaH2PO4 1.25 mM; D-glucose 10 mM; Na-ascorbic acid salt 1.3 mM; MgCl2 3 mM; CaCl2 0.5 mM, 95% O2/5% CO2 and had pH 7.4. The slice was recovered in a normal ACSF (artificial cerebrospinal fluid) for 1 hour and then maintained at room temperature (23 to 25° C.) until recording. […] All electrophysiological experiments were performed in a recording chamber while the samples were immersed in the solution in a manner described previously (Song et al., 2017). Signals were amplified using a MultiClamp 700B amplifier (Molecular Devices, CA, USA) at a cut-off frequency of 2.8 kHz and were measured with a Digidata 1440A interface (Molecular Devices) at a 10 kHz sampling frequency. Data were collected using pClamp 10.2 (Molecular Devices) software. The collected data were analyzed with a program created in the lab using Igor Pro (WaveMetrics, OR, USA). To record the field excitatory post-synaptic potential (fEPSP) in the hippocampal SC-CA1 synapse, hippocampal slices were placed in the recording chamber and perfused with ACSF while oxygen was fed continuously to the ACSF. The ACSF was maintained at a temperature of 29 to 30° C. using a heater for perfusion (SH-27B, Warner Instruments, CT, USA). A synapse response was induced by stimulation with a glass pipette (0.3 to 0.5 Mohm) every 20 seconds (0.05 Hz). The synapse response was recorded using a glass pipette (3 to 4 Mohm) filled with ACSF. The intensity of the stimulus was adjusted to produce a synapse response of about ⅓ of the maximum value thereof. The slices with unstable (10%) baseline records were excluded. To investigate the effect of syringaresinol (SYR) on the synaptic transmission, the field excitatory post-synaptic potential (fEPSP) of the Schaffer collateral (SC)-CA1 synapse of the hippocampus of adult mice (4 to 6 weeks of age) was measured. After confirming the stable baseline, different concentrations of SYR were applied thereto using the perfusion solution.

NS(=O)(=O)c1cccc2c1c([N+](=O)[O-])cc1nc(O)c(O)nc12 [NBQX, reference compound]
block of the synaptic response (fEPSP): completely blocked
